In PMC9981747, “A covalent BTK ternary complex compatible with targeted protein degradation” (Nature Communications, 2023):
“And” between values parts separate entries of the source, which are not always exact repeats. Identical values can stand only once.

What was measured:
Assay type in all cases: cell-based
BTK^FL [1] = target: T1, BTK^FL (Homo sapiens, UniProt Q06187+Q13490); assay: Expi293 time-dependent degradation of BTK^FL; conditions: 5 µM; for BTK^FL (WT) blot signal normalized to time 0: replicates
T1 construct: we used a full-length BTK (aa1-659) with a C terminal Tobacco Etch Virus protease (TEV) site; expressed in transfected cells; host or cells: Expi293 (HEK293)
Method: (§1) Gibco Expi293 cell line Transfection Kit (Cat.# A14524) was cultured according to the manufacturers conditions. Cells were grown at 37 °C with 5% CO2 to 4 × 10^6 cells/mL using an orbital shaker set to 95 RPM. Next cells were split to 2 × 10^6 cells/mL and transfected with plasmid DNA at a 1 µg/mL final concentration in Optimem (Gibco 31985070) using the Expifectamine 293 transfection reagent according to manufacturer’s conditions. After approximately 18 h, enhancers 1 and 2 (provided with kit). Viability was typically about 85%. When cIAP1^FL was transfected, it was detected via α-cIAP1 antibody there was typically some autoubiquitination detected, and thus often appeared as a laddered or smeared band via western blotting. When BTK^FL variants were transfected, they were detected using anti-BTK antibody (D3H5).
(§2) For covalent modification detection assays, the compound was added to Expi293 cells after enhancer treatment. At each timepoint 10 mL of cells were harvested, rapidly cooled to 4 °C in an ice bath, and centrifuged at 100 x g at 4 °C for 5 min. The pellet was washed twice with ice-cold PBS, snap-frozen in liquid nitrogen, and stored at −80 °C. Each pellet was resuspended in 0.1 mL ice-cold RIPA Buffer supplemented with 40 µM BCNC (to outcompete any remaining BCCov), protease inhibitor, and benzonase, and sonicated with 10 brief blasts at power 20. Lysate was centrifuged at 15 K x g for 20 min at 4 °C and prepared for western blotting as detailed above. When samples were evaluated for covalent adduct formation, a purification step was required. Briefly, the ~1 mL of clarified lysate was added to 9 mL of FLAG binding buffer (25 mM HEPES 7.5, 300 mM NaCl, 10% glycerol). These samples were incubated with 250 µL of anti-FLAG M2 affinity resin (Millipore-Sigma Cat. # A2220) for 3 h at 4 °C with gentle nutation. Samples were washed via gravity column filtration and eluted with 0.2 mg/ml FLAG Peptide (DYKDDDDK, CPC Scientific Peptide Company). Each sample was concentrated to 0.1 mg/mL using an Amicon Ultra-15 Centrifugal filter with a 50 kDa MWCO (Millipore-Sigma Cat. # UFC905024). Details on mass spectrometry analysis are below.

BTK^FL-C481S [2] = target: T2, BTK^FL-C481S (Homo sapiens, UniProt Q06187+Q13490, C481S); assay: Expi293 time-dependent degradation of BTK^FL-C481S; conditions: 5 µM; for BTK^FL-C481S blot signal normalized to time 0: replicates
T2 construct: we used a full-length BTK (aa1-659) with a C terminal Tobacco Etch Virus protease (TEV) site; expressed in transfected cells; host or cells: Expi293 (HEK293)
Method: as §1, §2

BTK^FL [3] = target: T3, BTK^FL (Homo sapiens, UniProt Q06187); assay: Covalent modification of BTK^FL in Expi293 cells without cIAP1, immunopurification and intact mass spectrometry; conditions: for Cov Form Over Time (% covalent bond formation): 5 µM, no exogenous cIAP1, replicates; for BTK^FL covalently modified: 18 h, n = 1
T3 construct: we used a full-length BTK (aa1-659) with a C terminal Tobacco Etch Virus protease (TEV) site; expressed in transfected cells; host or cells: Expi293 (HEK293)
Method: as §2
Each sample was analyzed using intact mass spectrometry under denaturing conditions using an Agilent 6530 QToF Mass Spectrometer coupled with an Agilent Infinity 1290 UPLC chromatography system. Spectra were analyzed using ChemLaunch v1.6.8 (Healex Systems), Mass Hunter V7.0 (Agilent Technologies), and BioConfirm v8.0 (Agilent Technologies). For all proteins analyzed, approximately 2 μl of 0.1–0.4 mg/ml protein sample was added to 8 μl 0.2% trifluoroacetic acid (TFA) (Sigma T6508–100 mL). Subsequently, 5 μl of each sample was injected onto the instrument. Depending on the resolution, the amount of protein loaded was altered. Theoretical versus observed molecular weight is presented in Supplementary Table 1. While we have not experimentally determined the post-translational modifications (PTMs) resulting in observed molecular weight, we believe a loss of methionine and acetylation are likely. Variations between theoretical and observed masses may also be due to the resolution of the deconvoluted spectra leading to imperfect peak identification, particularly for a protein with heterogeneous phosphorylation states. Variation of several Daltons is observed between biological replicates and individual experiments.

BTK^T474I-C481S = target: T4, BTK^T474I-C481S (Homo sapiens, UniProt Q06187+Q13490, C481S/T474I); assay: Expi293 dose-dependent degradation of BTK double mutant; conditions: Expi293 with cIAP1^FL
T4 construct: we used a full-length BTK (aa1-659) with a C terminal Tobacco Etch Virus protease (TEV) site; expressed in transfected cells; host or cells: Expi293 (HEK293)
Method: as §1
(§3) For dose-dependent degradation assays, cells were plated in a 24-well format and placed on a separate orbital shaker set to 115 RPM. […] Clarified lysate was harvested and quantified using a Pierce BCA Assay Kit (Cat. #23225), and 20 µg of the sample was loaded into a 4–15% Criterion TGX gel (Bio-Rad, 5678085) and transferred to a nitrocellulose membrane (Life Technologies Cat. #IB23001) using an iBlot 2 (Life Technologies Cat. #IB21001). Proteins were detected using an iBind system (Life Technologies SLF2020). […]

BTK^T474I = target: T5, BTK^T474I (Homo sapiens, UniProt Q06187+Q13490, T474I); assay: Expi293 dose-dependent degradation of BTK gatekeeper mutant; conditions: Expi293 with cIAP1^FL
T5 construct: we used a full-length BTK (aa1-659) with a C terminal Tobacco Etch Virus protease (TEV) site; expressed in transfected cells; host or cells: Expi293 (HEK293)
Method: as §1, §3

BTK^FL-C481S [4] = target: T6, BTK^FL-C481S (Homo sapiens, UniProt Q06187, C481S); assay: Covalent modification of BTK^FL-C481S in Expi293 cells, intact mass spectrometry; conditions: 20 µM
T6 construct: we used a full-length BTK (aa1-659) with a C terminal Tobacco Etch Virus protease (TEV) site; expressed in transfected cells; host or cells: Expi293 (HEK293)
Method: as §2, with “These samples were incubated with 250 µL of anti-FLAG M2 affinity resin (Millipore-Sigma Cat. # A2220) for 3 h at 4 °C with gentle nutation. Samples were washed via gravity column filtration and eluted with 0.2 mg/ml FLAG Peptide (DYKDDDDK, CPC Scientific Peptide Company). Each sample was concentrated to 0.1 mg/mL using an Amicon Ultra-15 Centrifugal filter with a 50 kDa MWCO (Millipore-Sigma Cat. # UFC905024). Details on mass spectrometry analysis are below.” left out
Each sample was analyzed using intact mass spectrometry under denaturing conditions using an Agilent 6530 QToF Mass Spectrometer coupled with an Agilent Infinity 1290 UPLC chromatography system. Spectra were analyzed using ChemLaunch v1.6.8 (Healex Systems), Mass Hunter V7.0 (Agilent Technologies), and BioConfirm v8.0 (Agilent Technologies). For all proteins analyzed, approximately 2 μl of 0.1–0.4 mg/ml protein sample was added to 8 μl 0.2% trifluoroacetic acid (TFA) (Sigma T6508–100 mL). […]

T3 sequence (Q06187 whole entry, the tested form may be a part): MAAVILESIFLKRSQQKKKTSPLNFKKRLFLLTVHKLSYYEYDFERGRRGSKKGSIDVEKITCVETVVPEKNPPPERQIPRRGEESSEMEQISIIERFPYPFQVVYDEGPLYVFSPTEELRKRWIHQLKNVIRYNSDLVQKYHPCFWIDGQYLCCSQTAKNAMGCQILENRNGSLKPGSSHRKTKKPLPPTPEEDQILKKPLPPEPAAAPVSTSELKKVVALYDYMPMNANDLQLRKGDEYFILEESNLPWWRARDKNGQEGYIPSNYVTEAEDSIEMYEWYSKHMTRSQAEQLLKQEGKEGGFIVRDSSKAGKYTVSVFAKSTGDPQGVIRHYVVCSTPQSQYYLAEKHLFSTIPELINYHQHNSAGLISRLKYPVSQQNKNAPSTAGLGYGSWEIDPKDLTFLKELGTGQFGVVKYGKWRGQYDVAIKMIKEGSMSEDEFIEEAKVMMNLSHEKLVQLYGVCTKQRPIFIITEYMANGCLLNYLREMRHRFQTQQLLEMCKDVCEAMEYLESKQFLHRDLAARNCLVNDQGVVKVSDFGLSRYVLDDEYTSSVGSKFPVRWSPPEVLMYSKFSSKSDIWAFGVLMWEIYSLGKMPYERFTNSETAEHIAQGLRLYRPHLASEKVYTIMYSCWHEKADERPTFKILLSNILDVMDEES
T1 sequence (Q06187 whole entry, the tested form may be a part): as above
T1 sequence (Q13490 whole entry, the tested form may be a part): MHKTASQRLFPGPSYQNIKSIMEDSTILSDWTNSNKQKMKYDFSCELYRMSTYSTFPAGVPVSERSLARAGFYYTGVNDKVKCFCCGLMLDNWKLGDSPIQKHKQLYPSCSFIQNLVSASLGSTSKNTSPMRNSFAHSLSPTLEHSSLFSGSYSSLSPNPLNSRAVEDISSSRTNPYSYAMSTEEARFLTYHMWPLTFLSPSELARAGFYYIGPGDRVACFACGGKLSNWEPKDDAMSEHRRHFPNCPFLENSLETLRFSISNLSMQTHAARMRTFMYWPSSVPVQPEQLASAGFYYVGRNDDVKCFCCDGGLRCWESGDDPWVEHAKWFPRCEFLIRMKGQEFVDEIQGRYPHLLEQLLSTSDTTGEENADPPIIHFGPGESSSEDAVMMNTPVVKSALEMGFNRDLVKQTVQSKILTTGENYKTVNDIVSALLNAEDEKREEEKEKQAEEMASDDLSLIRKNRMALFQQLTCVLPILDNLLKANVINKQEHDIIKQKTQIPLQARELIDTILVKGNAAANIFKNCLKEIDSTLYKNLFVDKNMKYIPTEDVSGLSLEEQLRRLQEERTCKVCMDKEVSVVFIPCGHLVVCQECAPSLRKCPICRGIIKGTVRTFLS
T2 sequence (Q06187 whole entry C481S, the tested form may be a part): as the sequence (Q06187 whole entry, the tested form may be a part) above, with C481S counted along it
T2 sequence (Q13490 whole entry, the tested form may be a part): as the sequence (Q13490 whole entry, the tested form may be a part) above
T6 sequence (Q06187 whole entry C481S, the tested form may be a part): as the sequence (Q06187 whole entry, the tested form may be a part) above, with C481S counted along it
T5 sequence (Q06187 whole entry T474I, the tested form may be a part): as the sequence (Q06187 whole entry, the tested form may be a part) above, with T474I counted along it
T5 sequence (Q13490 whole entry, the tested form may be a part): as the sequence (Q13490 whole entry, the tested form may be a part) above
T4 sequence (Q06187 whole entry T474I/C481S, the tested form may be a part): as the sequence (Q06187 whole entry, the tested form may be a part) above, with T474I, C481S counted along it
T4 sequence (Q13490 whole entry, the tested form may be a part): as the sequence (Q13490 whole entry, the tested form may be a part) above

Row | Compound | BTK^FL (WT) blot signal normalized to time 0 (BTK^FL [1]; 0.5 h) | BTK^FL (WT) blot signal normalized to time 0 (BTK^FL [1]; 1 h) | BTK^FL (WT) blot signal normalized to time 0 (BTK^FL [1]; 2 h) | BTK^FL (WT) blot signal normalized to time 0 (BTK^FL [1]; 3.5 h) | BTK^FL (WT) blot signal normalized to time 0 (BTK^FL [1]; 5.5 h) | BTK^FL (WT) blot signal normalized to time 0 (BTK^FL [1]; 7 h) | BTK^FL (WT) blot signal normalized to time 0 (BTK^FL [1]; 17 h) | BTK^FL-C481S blot signal normalized to time 0 (BTK^FL-C481S [2]; 0.5 h) | BTK^FL-C481S blot signal normalized to time 0 (BTK^FL-C481S [2]; 1 h) | BTK^FL-C481S blot signal normalized to time 0 (BTK^FL-C481S [2]; 2 h) | BTK^FL-C481S blot signal normalized to time 0 (BTK^FL-C481S [2]; 3.5 h) | BTK^FL-C481S blot signal normalized to time 0 (BTK^FL-C481S [2]; 5.5 h) | BTK^FL-C481S blot signal normalized to time 0 (BTK^FL-C481S [2]; 7 h) | BTK^FL-C481S blot signal normalized to time 0 (BTK^FL-C481S [2]; 17 h) | also measured
1 | CNC(C)C(=O)NC(C(=O)N1CC(NC(=O)COCCN2CCN(CC=CC(=O)N3CCCC(n4nc(-c5ccc(Oc6ccccc6)cc5)c5c(N)ncnc54)C3)CC2)CC1C(=O)NC1CCCc2ccccc21)C1CCCCC1 (stereo not shown) [BCCov] | 0.46 and 0.65 and 0.56 | 0.26 and 0.42 and 0.40 | 0.14 and 0.25 and 0.20 | 0.0842 and 0.15 and 0.20 | 0.12 and 0.14 and 0.13 | 0.07 and 0.02 and 0.03 | 0.00 (2×) and 0.02 | 0.75 and 0.78 and 0.82 | 0.77 and 0.74 and 0.81 | 0.71 and 0.76 and 0.72 | 0.60 and 0.65 and 0.66 | 0.58 and 0.55 and 0.61 | 0.41 and 0.48 and 0.42 | 0.07 (2×) and 0.02 | time at which degradation reaches a plateau (BTK^FL [1]; BTK^FL with cIAP1^FL): ≤ 7 h; time at which degradation starts (BTK^FL [1]; BTK^FL with cIAP1^FL): 30 min; rate of BTK^FL-C481S degradation compared with BTK^FL (BTK^FL-C481S [2]): slower rate; Cov Form Over Time (% covalent bond formation) (BTK^FL [3]; 0.5 h): 5.67% and 6.21% and 5.89%; Cov Form Over Time (% covalent bond formation) (BTK^FL [3]; 1 h): 8.64% and 10.21% and 9.49%; Cov Form Over Time (% covalent bond formation) (BTK^FL [3]; 2 h): 14.47% and 13.21% and 14.33%; Cov Form Over Time (% covalent bond formation) (BTK^FL [3]; 3.5 h): 19.26% and 19.25% and 19.86%; Cov Form Over Time (% covalent bond formation) (BTK^FL [3]; 5.5 h): 31.90% and 34.21% and 30.28%; Cov Form Over Time (% covalent bond formation) (BTK^FL [3]; 7 h): 34.24% and 36.81% and 34.22%; Cov Form Over Time (% covalent bond formation) (BTK^FL [3]; 17 h): 33.97% and 36.13% and 34.85%; BTK^FL covalently modified (BTK^FL [3]; 5 uM): 35.00%; BTK^FL covalently modified (BTK^FL [3]; 10 uM): 64.70%; BTK^FL covalently modified (BTK^FL [3]; 15 uM): 77.49%; BTK^FL covalently modified (BTK^FL [3]; 30 uM): 94.20%; time that the level of covalent modification remains stable post-treatment (BTK^FL [3]; single dose 20 µM): at least 48 h; degradation of BTK^T474I-C481S (BTK^T474I-C481S): loss of activity; degradation of BTK^T474I (BTK^T474I): loss of activity; covalent adduct formation on BTK^FL-C481S (BTK^FL-C481S [4]): no similar adduct
2 | CNC(C)C(=O)NC(C(=O)N1CC(NC(=O)COCCN2CCN(CCCC(=O)N3CCCC(n4nc(-c5ccc(Oc6ccccc6)cc5)c5c(N)ncnc54)C3)CC2)CC1C(=O)NC1CCCc2ccccc21)C1CCCCC1 (stereo not shown) [BCNC] | 0.49 and 0.76 and 0.55 | 0.28 and 0.42 and 0.35 | 0.16 and 0.20 and 0.21 | 0.06 (2×) and 0.10 | 0.056 and 0.10 and 0.08 | 0.00935 and 0.01 and 0.09 | 0.00 and 0.02 (2×) | 0.79 and 0.85 and 0.76 | 0.74 and 0.81 and 0.78 | 0.68 and 0.72 and 0.69 | 0.53 and 0.64 and 0.52 | 0.35 and 0.44 and 0.38 | 0.35 and 0.32 and 0.33 | 0.00 and 0.04 (2×) | 
